The nature of this data set: log P determination by HPLC (EEC directive 79/831 Annex V. A8). It is filed as physicochemical.
Where [1] appears, read: HPLC, gradient method, acetonitrile/0.1% aqueous phosphoric acid.

Structures are written as SMILES.

A word on the logP: it is the decadic logarithm of the partition coefficient of the neutral form, usually between octanol and water. Lower therefore signals a more hydrophilic compound. For the molecule `CON=C(C(=O)N(C)O)c1ccccc1Oc1ncnc(Oc2ccccc2Cl)c1F` [Example 1], the logP (HPLC) is given as 2.82.

For orientation: chromatographic logP means a lipophilicity value derived from retention on a column. High values mean a more lipophilic compound, low ones a more hydrophilic compound. Take `CON=C(C(=O)NO)c1ccccc1Oc1ncnc(Oc2ccccc2Cl)c1F` [Example 2, 2-(2-{[6-(2-Chlorophenoxy)-5-fluoro-4-pyrimidinyl]oxy}phenyl)-N-hydroxy-2-(methoxyimino)-acetamide]: for the setting “HPLC”, the chromatographic logP was found to be 2.56.

The molecule `CON=C(C(=O)N(C)OC(C)=O)c1ccccc1Oc1ncnc(Oc2ccccc2Cl)c1F` [Example 3, N-(Acetyloxy)-2-(2-{[6-(2-chlorophenoxy)-5-fluoro-4-pyrimidinyl]oxy}phenyl)-2-(methoxyimino)-N-methylacetamide] gave a chromatographic logP (HPLC (gradient method)) of 3.52.

The molecule `CON=C(C(=O)N(C)O)c1ccccc1Oc1ncnc(Oc2ccccc2F)c1F` [Example 4] gave a chromatographic logP under setting [1] of 2.66.

In turn, `CON=C(C(=O)N(C)O)c1ccccc1Oc1ncnc(Oc2cccc(Cl)c2C)c1F` [Example 5] returned a chromatographic logP under setting [1] of 3.29.

Regarding `CON=C(C(=O)N(C)O)c1ccccc1Oc1ncnc(Oc2cc(Cl)ccc2Cl)c1F` [Example 6], the chromatographic logP under setting [1] amounted to 3.28.

Consider `CON=C(C(=O)N(C)O)c1ccccc1Oc1ncnc(Oc2cccc(Cl)c2Cl)c1F` [Example 7], for which the chromatographic logP under setting [1] was determined as 3.22.

`CON=C(C(=O)N(C)O)c1ccccc1Oc1ncnc(Oc2ccccc2C#N)c1F` [Example 8] registered a chromatographic logP under setting [1] of 2.43.

`CON=C(C(=O)N(C)OC)c1ccccc1Oc1ncnc(Oc2ccccc2Cl)c1F` [Example 9] showed a chromatographic logP under setting [1] of 3.5.

Turning to `CON=C(C(=O)OC)c1ccccc1Oc1ncnc(Oc2ccccc2Cl)c1F` [Example (VI-1), Methyl 2-{2-[6-(2-chlorophenoxy)-5-fluoro-pyrimidin-4-yloxy]-phenyl}-2-methoxyiminoacetate], the chromatographic logP (HPLC) is 3.61.
